{"source": "the supplement of paper PMC10307832", "experiment_in_all_cases": "relative viability (nuclei count vs DMSO), 5 days (fraction); higher = more cells survive", "key": {"A-427": {"system": "A-427", "outline": "(§1)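 Dosing by pin tool came one day after lung cancer cell lines were seeded in 1536-well plates, using either one drug or a fixed anchor-drug dose plus five library-drug doses (not always all listed) in √10 steps. After 5 days, nuclei were counted on 4× images. Relative viability is treated-well nuclei count divided by vehicle-well nuclei count, and values are medians of duplicate plates.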"}, "LU99A": {"system": "LU99A", "outline": "as §1"}, "NCI-H2009": {"system": "NCI-H2009", "outline": "as §1"}, "EMC-BAC-2": {"system": "EMC-BAC-2", "outline": "as §1"}, "HARA": {"system": "HARA", "outline": "as §1"}, "NCI-H1993": {"system": "NCI-H1993", "outline": "as §1"}, "NCI-H727": {"system": "NCI-H727", "outline": "as §1"}, "LK-2": {"system": "LK-2", "outline": "as §1"}, "NCI-H2170": {"system": "NCI-H2170", "outline": "as §1"}, "SW 1573": {"system": "SW 1573", "outline": "as §1"}, "HOP-62": {"system": "HOP-62", "outline": "as §1"}, "SK-MES-1": {"system": "SK-MES-1", "outline": "as §1"}, "NCI-H1792": {"system": "NCI-H1792", "outline": "as §1"}, "SK-LU-1": {"system": "SK-LU-1", "outline": "as §1"}, "NCI-H3122": {"system": "NCI-H3122", "outline": "as §1"}, "NCI-H1793": {"system": "NCI-H1793", "outline": "as §1"}, "PC-3 [JPC-3]": {"system": "PC-3 [JPC-3]", "outline": "as §1"}, "SW 900": {"system": "SW 900", "outline": "as §1"}, "NCI-H2228": {"system": "NCI-H2228", "outline": "as §1"}, "COR-L23": {"system": "COR-L23", "outline": "as §1"}, "NCI-H1944": {"system": "NCI-H1944", "outline": "as §1"}, "LXF-289": {"system": "LXF-289", "outline": "as §1"}, "ABC-1": {"system": "ABC-1", "outline": "as §1"}}}
{"molecule": "C[C@@H]1CN(CC(=O)Nc2ccc3c(c2)Cc2cccc(-c4cc(=O)cc(N5CCOCC5)o4)c2S3)C[C@H](C)O1", "note": "+ CC(=O)c1c(C)c2cnc(Nc3ccc(N4CCNCC4)cn3)nc2n(C2CCCC2)c1=O [Palbociclib] (partner 0.5 µM)", "values": [{"measurement": "relative viability", "setting": "A-427; first compound 0.04 µM", "value": 0.428}, {"measurement": "relative viability", "setting": "A-427; first compound 0.1265 µM", "value": 0.531}, {"measurement": "relative viability", "setting": "A-427; first compound 0.4 µM", "value": 0.537}, {"measurement": "relative viability", "setting": "A-427; first compound 4 µM", "value": 0.593}, {"measurement": "relative viability", "setting": "LU99A; first compound 0.04 µM", "value": 0.387}, {"measurement": "relative viability", "setting": "LU99A; first compound 0.1265 µM", "value": 0.404}, {"measurement": "relative viability", "setting": "LU99A; first compound 0.4 µM", "value": 0.449}, {"measurement": "relative viability", "setting": "LU99A; first compound 4 µM", "value": 0.445}, {"measurement": "relative viability", "setting": "NCI-H2009; first compound 0.04 µM", "value": 0.216}, {"measurement": "relative viability", "setting": "NCI-H2009; first compound 0.1265 µM", "value": 0.214}, {"measurement": "relative viability", "setting": "NCI-H2009; first compound 0.4 µM", "value": 0.206}, {"measurement": "relative viability", "setting": "NCI-H2009; first compound 4 µM", "value": 0.206}, {"measurement": "relative viability", "setting": "EMC-BAC-2; first compound 0.04 µM", "value": 0.502}, {"measurement": "relative viability", "setting": "EMC-BAC-2; first compound 0.1265 µM", "value": 0.529}, {"measurement": "relative viability", "setting": "EMC-BAC-2; first compound 0.4 µM", "value": 0.502}, {"measurement": "relative viability", "setting": "EMC-BAC-2; first compound 4 µM", "value": 0.545}, {"measurement": "relative viability", "setting": "HARA; first compound 0.04 µM", "value": 0.234}, {"measurement": "relative viability", "setting": "HARA; first compound 0.1265 µM", "value": 0.186}, {"measurement": "relative viability", "setting": "HARA; first compound 0.4 µM", "value": 0.272}, {"measurement": "relative viability", "setting": "HARA; first compound 4 µM", "value": 0.226}, {"measurement": "relative viability", "setting": "NCI-H1993; first compound 0.04 µM", "value": 0.645}, {"measurement": "relative viability", "setting": "NCI-H1993; first compound 0.1265 µM", "value": 0.729}, {"measurement": "relative viability", "setting": "NCI-H1993; first compound 0.4 µM", "value": 0.438}, {"measurement": "relative viability", "setting": "NCI-H1993; first compound 4 µM", "value": 0.662}, {"measurement": "relative viability", "setting": "NCI-H727; first compound 0.04 µM", "value": 0.852}, {"measurement": "relative viability", "setting": "NCI-H727; first compound 0.1265 µM", "value": 0.596}, {"measurement": "relative viability", "setting": "NCI-H727; first compound 0.4 µM", "value": 0.679}, {"measurement": "relative viability", "setting": "NCI-H727; first compound 4 µM", "value": 0.675}, {"measurement": "relative viability", "setting": "LK-2; first compound 0.04 µM", "value": 0.6}, {"measurement": "relative viability", "setting": "LK-2; first compound 0.1265 µM", "value": 0.697}, {"measurement": "relative viability", "setting": "LK-2; first compound 0.4 µM", "value": 0.651}, {"measurement": "relative viability", "setting": "LK-2; first compound 4 µM", "value": 0.792}, {"measurement": "relative viability", "setting": "NCI-H2170; first compound 0.04 µM", "value": 0.399}, {"measurement": "relative viability", "setting": "NCI-H2170; first compound 0.1265 µM", "value": 0.436}, {"measurement": "relative viability", "setting": "NCI-H2170; first compound 0.4 µM", "value": 0.416}, {"measurement": "relative viability", "setting": "NCI-H2170; first compound 4 µM", "value": 0.36}, {"measurement": "relative viability", "setting": "SW 1573; first compound 0.04 µM", "value": 0.501}, {"measurement": "relative viability", "setting": "SW 1573; first compound 0.1265 µM", "value": 0.337}, {"measurement": "relative viability", "setting": "SW 1573; first compound 0.4 µM", "value": 0.393}, {"measurement": "relative viability", "setting": "SW 1573; first compound 4 µM", "value": 0.264}, {"measurement": "relative viability", "setting": "HOP-62; first compound 0.04 µM", "value": 0.398}, {"measurement": "relative viability", "setting": "HOP-62; first compound 0.1265 µM", "value": 0.43}, {"measurement": "relative viability", "setting": "HOP-62; first compound 0.4 µM", "value": 0.412}, {"measurement": "relative viability", "setting": "HOP-62; first compound 4 µM", "value": 0.405}, {"measurement": "relative viability", "setting": "SK-MES-1; first compound 0.04 µM", "value": 0.35}, {"measurement": "relative viability", "setting": "SK-MES-1; first compound 0.1265 µM", "value": 0.323}, {"measurement": "relative viability", "setting": "SK-MES-1; first compound 0.4 µM", "value": 0.309}, {"measurement": "relative viability", "setting": "SK-MES-1; first compound 4 µM", "value": 0.302}, {"measurement": "relative viability", "setting": "NCI-H1792; first compound 0.04 µM", "value": 0.61}, {"measurement": "relative viability", "setting": "NCI-H1792; first compound 0.1265 µM", "value": 0.594}, {"measurement": "relative viability", "setting": "NCI-H1792; first compound 0.4 µM", "value": 0.658}, {"measurement": "relative viability", "setting": "NCI-H1792; first compound 4 µM", "value": 0.563}, {"measurement": "relative viability", "setting": "SK-LU-1; first compound 0.04 µM", "value": 0.434}, {"measurement": "relative viability", "setting": "SK-LU-1; first compound 0.1265 µM", "value": 0.372}, {"measurement": "relative viability", "setting": "SK-LU-1; first compound 0.4 µM", "value": 0.367}, {"measurement": "relative viability", "setting": "SK-LU-1; first compound 4 µM", "value": 0.387}, {"measurement": "relative viability", "setting": "NCI-H3122; first compound 0.04 µM", "value": 0.214}, {"measurement": "relative viability", "setting": "NCI-H3122; first compound 0.1265 µM", "value": 0.201}, {"measurement": "relative viability", "setting": "NCI-H3122; first compound 0.4 µM", "value": 0.176}, {"measurement": "relative viability", "setting": "NCI-H3122; first compound 4 µM", "value": 0.161}, {"measurement": "relative viability", "setting": "NCI-H1793; first compound 0.04 µM", "value": 0.297}, {"measurement": "relative viability", "setting": "NCI-H1793; first compound 0.1265 µM", "value": 0.323}, {"measurement": "relative viability", "setting": "NCI-H1793; first compound 0.4 µM", "value": 0.296}, {"measurement": "relative viability", "setting": "NCI-H1793; first compound 4 µM", "value": 0.2}, {"measurement": "relative viability", "setting": "PC-3 [JPC-3]; first compound 0.04 µM", "value": 0.501}, {"measurement": "relative viability", "setting": "PC-3 [JPC-3]; first compound 0.1265 µM", "value": 0.515}, {"measurement": "relative viability", "setting": "PC-3 [JPC-3]; first compound 0.4 µM", "value": 0.535}, {"measurement": "relative viability", "setting": "PC-3 [JPC-3]; first compound 4 µM", "value": 0.477}, {"measurement": "relative viability", "setting": "SW 900; first compound 0.04 µM", "value": 0.532}, {"measurement": "relative viability", "setting": "SW 900; first compound 0.1265 µM", "value": 0.472}, {"measurement": "relative viability", "setting": "SW 900; first compound 0.4 µM", "value": 0.564}, {"measurement": "relative viability", "setting": "SW 900; first compound 4 µM", "value": 0.412}, {"measurement": "relative viability", "setting": "NCI-H2228; first compound 0.04 µM", "value": 0.993}, {"measurement": "relative viability", "setting": "NCI-H2228; first compound 0.1265 µM", "value": 0.743}, {"measurement": "relative viability", "setting": "NCI-H2228; first compound 0.4 µM", "value": 0.916}, {"measurement": "relative viability", "setting": "NCI-H2228; first compound 4 µM", "value": 0.605}, {"measurement": "relative viability", "setting": "COR-L23; first compound 0.04 µM", "value": 0.294}, {"measurement": "relative viability", "setting": "COR-L23; first compound 0.1265 µM", "value": 0.281}, {"measurement": "relative viability", "setting": "COR-L23; first compound 0.4 µM", "value": 0.379}, {"measurement": "relative viability", "setting": "COR-L23; first compound 4 µM", "value": 0.24}, {"measurement": "relative viability", "setting": "NCI-H1944; first compound 0.1265 µM", "value": 0.343}, {"measurement": "relative viability", "setting": "NCI-H1944; first compound 0.4 µM", "value": 0.344}, {"measurement": "relative viability", "setting": "NCI-H1944; first compound 4 µM", "value": 0.354}, {"measurement": "relative viability", "setting": "LXF-289; first compound 0.04 µM", "value": 0.616}, {"measurement": "relative viability", "setting": "LXF-289; first compound 0.1265 µM", "value": 0.617}, {"measurement": "relative viability", "setting": "LXF-289; first compound 0.4 µM", "value": 0.613}, {"measurement": "relative viability", "setting": "LXF-289; first compound 4 µM", "value": 0.549}, {"measurement": "relative viability", "setting": "ABC-1; first compound 0.04 µM", "value": 0.376}, {"measurement": "relative viability", "setting": "ABC-1; first compound 0.1265 µM", "value": 0.673}, {"measurement": "relative viability", "setting": "ABC-1; first compound 0.4 µM", "value": 0.634}, {"measurement": "relative viability", "setting": "ABC-1; first compound 4 µM", "value": 0.811}]}
